Test system: spontaneously hypertensive (SHR) male rats
Assay: Blood pressure in SHR rats after single PO administration
Format: in vivo, rat
Conditions: 3 mg kg−1 per os once

Structure (SMILES): COc1cc2nc(N3CCN(C(=O)C4CCCO4)CC3)nc(N)c2cc1OC (centres unmarked) [compound 74, terazosin]
- systolic BP lowering effect in comparison with the vehicle at 120 min (120 min time point): no statistically significant activity
- systolic BP decrease in comparison with corresponding vehicle groups (after 15 min and 60 min of treatment): significant systolic BP decrease
